Assay results from patent US20110027354A1, “ANTI-PA[…]” (priority 2008, published 2011).
Entries after “also recorded” stand apart in the source; their conditions may differ.

Key:
[1] = tested on: dopamine (DA), DOPAC and HVA in the striatum; assay: HPLC analysis of striatal DA, DOPAC and HVA; assay type: in vivo, mice; conditions: for effect on MPTP-induced increase of DA turnover rate / effect on MPTP-induced reduction of DOPAC / effect on MPTP-induced reduction of HVA / effect on MPTP-induced reduction of dopamine (DA): 2.5 mg/kg i.p., vs. MPTP alone; for effect on MPTP-induced reduction of dopamine (DA): 2.5 mg/kg; for levels of DA, DOPAC, HVA: drug alone (no MPTP)
Experimental: At 1 day after last MPTP injections mice were killed by cervical dislocation, the brains were removed and placed on an ice-cooled plate. Striatum was dissected and immediately frozen on dry ice and store at −70° C. until extraction. Brain regions obtained from each animal were weighed, ultrasonicated in 10% perchloric acid containing 10 ng/mg of the internal standard dihydroxybenzilamine, and centrifuged at 20,000 g for 10 min. The levels of DA and its metabolites 3,4-dihydroxyphenylacetic acid (DOPAC) and homovanillic acid (HVA) in brain tissue extracts were determined by HPLC coupled with electrochemical detection as described (Ali et al., 1994). Briefly, striatal tissues were sonicated in 0.2 M perchloric acid (20% W/V) containing the internal standard 3,4-dihydroxybenzylamine (10 mg wet tissue/ml) The homogenate was centrifuged and a 20-μl aliquot of the supernatant was injected into the HPLC equipped with a 3-μm C18 column. The mobile phase was comprised of 26 ml of acetonitrile, 21 ml of tetrahydrofuran and 960 ml of 0.15 M monochloroacetic acid (pH 3.0) containing 50 mg/l of EDTA and 200 mg/l of sodium octyl sulfate. The amount of DA, DOPAC and HVA were determined by comparison of peak height ratio of tissue sample with standards, and were expressed in nanograms per gram of wet weight of tissue.

[2] = tested on: F4/80, a marker of reactive microglia; assay: F4/80 expression (western blot); assay type: in vivo, mice; conditions: striatum; pre-treatment; vs. MPTP alone
Experimental: The western blot assays were performed as described previously (thong et al., 1997). Tissues were homogenized in lysis buffer, containing 200 mM Tris HCl (pH 6.8), 1% SDS, 5 mM ethylene glycol tetraacetic acid, 5 mM ethylenediaminetetraacetic acid, 10% glycerol, 1× phosphatase inhibitor cocktail I, 1× protease inhibitor cocktail. The supernatant fraction was subsequently centrifuged at 30,000×g for 30 min. The resulting pellet was resuspended in the sample buffer. Proteins (20-50 ug/lane) were separated by 6%, 8%, 10% or 15% sodium dodecyl sulfate-polyacrylamide gel electrophoresis and transferred onto the nitrocellulose membranes. Following transfer, the nitrocellulose membranes were preincubated with 5% non-fat milk and incubated overnight at 4° C. with anti-β-actin (Sigma, 1:50000), anti-TH (Chemicon, 1:5000), anti-TH phosphoser19 (Chemicon, 1:5000), anti-TH phosphoser31 (Chemicon, 1:500), anti-TH phosphoser40 (Chemicon, 1:500), anti-F 4/80 (Serotec, 1:500), anti-BDNF (Chemicon, 1:500), anti-GDNF (Santa-Cruz, 1:250), anti-Akt (Cell signaling, 1:1000), anti-phospho Akt ser 473 (Cell signaling, 1:1000), anti-PI3K (Cell signaling, 1:1000), anti-phospho PI3K (Cell signaling, 1:500) and anti-α-synuclein (BD Transduction, 1:500) antibody. […]

mice = assay: Locomotor activity after repeated treatment with drug alone; assay type: in vivo; conditions: repeated treatment i.p./day×7, selegiline or MPPE 2.5 or 5.0 mg/kg, MA 0.5 or 1.0 mg/kg; for locomotor activities: vs. saline
Experimental: Selegiline or […] was injected (2.5 or 5 mg/kg, i.p.) once a day for 7 consecutive days. Methamphetamine, a positive control, was also administered (0.5 or 1 mg/kg, i.p.) once a day for 7 days.
Locomotor activity measured for 30 min one day after the last MPTP administration using an automated video-tracking system (Noldus Information Technology, Wagenin, The Netherlands). Eight test boxes (40×40×30 cm high) were operated simultaneously by an IBM computer. Animals were studied individually during locomotion in each test box, where they were adapted for 5 min before starting the experiment. […] The distance traveled in cm by the animals in horizontal locomotor activity was analyzed. Data were collected and analyzed between 09:00 and 17:00 h (Kim et al., 2001).

[3] = tested on: brain derived neurotrophic factor (BDNF); assay: BDNF expression (western blot); assay type: in vivo, mice; conditions: striatum; for effect on MPTP-induced reduction of BDNF expression: pre-treatment, vs. MPTP alone
Experimental: (§1) The western blot assays were performed as described previously (thong et al., 1997). Tissues were homogenized in lysis buffer, containing 200 mM Tris HCl (pH 6.8), 1% SDS, 5 mM ethylene glycol tetraacetic acid, 5 mM ethylenediaminetetraacetic acid, 10% glycerol, 1× phosphatase inhibitor cocktail I, 1× protease inhibitor cocktail. The supernatant fraction was subsequently centrifuged at 30,000×g for 30 min. The resulting pellet was resuspended in the sample buffer. Proteins (20-50 ug/lane) were separated by 6%, 8%, 10% or 15% sodium dodecyl sulfate-polyacrylamide gel electrophoresis and transferred onto the nitrocellulose membranes. Following transfer, the nitrocellulose membranes were preincubated with 5% non-fat milk and incubated overnight at 4° C. with anti-β-actin (Sigma, 1:50000), anti-TH (Chemicon, 1:5000), anti-TH phosphoser19 (Chemicon, 1:5000), anti-TH phosphoser31 (Chemicon, 1:500), anti-TH phosphoser40 (Chemicon, 1:500), anti-F 4/80 (Serotec, 1:500), anti-BDNF (Chemicon, 1:500), anti-GDNF (Santa-Cruz, 1:250), anti-Akt (Cell signaling, 1:1000), anti-phospho Akt ser 473 (Cell signaling, 1:1000), anti-PI3K (Cell signaling, 1:1000), anti-phospho PI3K (Cell signaling, 1:500) and anti-α-synuclein (BD Transduction, 1:500) antibody. After incubation with primary antibody, membranes were incubated with the secondary anti-rabbit IgG, Horseradish Peroxidase (1:1000 dilution, Amersham) or anti-mouse IgG, Horseradish Peroxidase (1:1000, Sigma), or anti-goat IgG, Horseradish Peroxidase (1:1000, Sigma) for 2 h, washed. Subsequently visualized with the Amersham ECL system (Amersham, Arlington Heights, Ill., USA).

[4] = tested on: reactive oxygen species (ROS); assay: Determination of ROS formation; assay type: in vivo, mice; conditions: striatum; for ROS level: drug alone (no MPTP); for effect on MPTP-induced increase in ROS level: one day after final MPTP, vs. MPTP alone
Experimental: The extent of reactive oxygen species (ROS) formation in the prefrontal cortex was assessed by measuring the conversion from 2′,7′-dichlorofluorescin diacetate (DCFH-DA) to dichlorofluoresin. (DCF) as describe by Bourre et al. with slight modification (Sutsumi, S et al., 2002). Brain homogenates were added to a tube containing 2 ml of PBS with 10 nmole of DCFH-DA, dissolved in methanol. Mixtures were incubated at 37° C. for 3 h and then measured the […] at 480 nm excitation and 525 nm emission. DCF is used as a standard.

α-synuclein = assay: Oligomergic α-synuclein expression (western blot); assay type: in vivo, mice; conditions: striatum; for effect on MPTP-induced increase in oligomergic α-synuclein: vs. MPTP alone
Experimental: as §1

| Structure (SMILES) | effect on MPTP-induced increase of DA turnover rate [1] | effect on MPTP-induced reduction of DOPAC [1] | effect on MPTP-induced reduction of HVA [1] | effect on MPTP-induced reduction of dopamine (DA) [1] | levels of DA, DOPAC, HVA [1] | attenuation for DA level compared with selegiline ([1]; vs. selegiline+MPTP) | attenuation of DA turnover rate increase compared with selegiline ([1]; vs. selegiline+MPTP) | effect on MPTP-induced increase in F4/80-immunoreactivity [2] | locomotor patterns (mice) | locomotor activities (mice) | effect on MPTP-induced reduction of BDNF expression [3] | enhancement of BDNF expression compared with selegiline ([3]; vs. selegiline+MPTP) | ROS level [4] | effect on MPTP-induced increase in ROS level [4] | attenuation of ROS increase compared with selegiline ([4]; vs. selegiline+MPTP) | effect on MPTP-induced increase in oligomergic α-synuclein (α-synuclein) | protection against α-synuclein increase compared with selegiline (α-synuclein; vs. selegiline+MPTP) | locomotor patterns (mice; listed as Sel) |
| --- | --- | --- | --- | --- | --- | --- | --- | --- | --- | --- | --- | --- | --- | --- | --- | --- | --- | --- |
| C#CCN(C)CCc1ccccc1 [MPPE, N-methyl-N-propynyl-2-phenylethylamine] | attenuated | attenuated | attenuated | significantly attenuated | did not show any significant effect | more pronounced in the MPPE-treated mice | more evident than by selegiline | significantly blocked increase in F4/80-immunoreactivity induced by MPTP; also recorded: attenuated | comparable to those by saline; also recorded: did not show these behavioural side effects | did not significantly alter locomotor activities | significantly attenuated | more effective | a little induction | attenuated | appeared to be more underlined in the MPPE-pretreated mice | significantly attenuated | more protective effect |  |
| C#CCN(C)[C@H](C)Cc1ccccc1 [selegiline, reference compound] | attenuated | attenuated | attenuated | significantly attenuated | did not show any significant effect |  |  | significantly blocked increase in F4/80-immunoreactivity induced by MPTP; also recorded: attenuated | circling locomotor patterns | significantly increased | significantly attenuated |  | a little induction | attenuated |  | significantly attenuated |  | typical circling locomotor patterns |
